The results in this text go back to ChEMBL document CHEMBL1641519, “Discovery of MK-7246, a selective CRTH2 antagonist for the treatment of respiratory diseases” (Bioorg Med Chem Lett, 2011).

Data set [1] can be described thus: in vivo. The following applies: Sprague-Dawley, rat, iv, 5 mg/kg.
Data set [2] in a line: in vivo. The following applies: Sprague-Dawley, rat.
Data set [3] in a line: in vivo. To be noted: Sprague-Dawley, rat, po, 10 mg/kg.
A short description of data set [4]: Metabolic stability in cynomolgus monkey hepatocytes. In kind it is ADME, cell-based, Macaca fascicularis, Hepatocyte.
A short description of data set [5]: Metabolic stability in Beagle dog hepatocytes. In kind it is ADME, cell-based, Canis lupus familiaris, Hepatocyte.
Data set [6] has as its system Hepatocyte. The data set is described as follows: Metabolic stability in Sprague-Dawley rat hepatocytes. Format: ADME, cell-based.
Data set [7] is described as follows: Metabolic stability in rhesus monkey hepatocytes. In kind it is ADME, cell-based, Macaca mulatta, Hepatocyte.
The test system of data set [8] is Hepatocyte. The data set is described as follows: Metabolic stability in human hepatocytes. In kind it is ADME, cell-based.
Data set [9] is described as follows: Volume of distribution at steady state in Beagle dog at 1 mg/kg, po and 0.5 mg/kg, iv. In kind it is ADME, organism-based, Canis lupus familiaris. The following applies: in vivo, read-out: Vdss.
Data set [10] is described as follows: Clearance in Beagle dog at 1 mg/kg, po and 0.5 mg/kg, iv. Format: ADME, organism-based, Canis lupus familiaris. The following applies: in vivo.
Data set [11] in a line: Terminal half life in Beagle dog at 1 mg/kg, po and 0.5 mg/kg, iv. Format: ADME, organism-based, Canis lupus familiaris. The following applies: in vivo.
Data set [12] in a line: Clearance in rhesus monkey at 1 mg/kg, po and 0.5 mg/kg, iv. In kind it is ADME, organism-based, Macaca fascicularis. The following applies: cynomolgus monkey, in vivo.
A short description of data set [13]: Volume of distribution at steady state in Sprague-Dawley rat at 10 mg/kg, po and 5 mg/kg, iv. Format: ADME, organism-based. To be noted: in vivo, read-out: Vdss.
A short description of data set [14]: Volume of distribution at steady state in rhesus monkey at 1 mg/kg, po and 0.5 mg/kg, iv. In kind it is ADME, organism-based, Macaca fascicularis. The following applies: cynomolgus monkey, in vivo, read-out: Vdss.
Data set [15] in a line: Volume of distribution at steady state in cynomolgus monkey at 1 mg/kg, po and 0.5 mg/kg, iv. To be noted: in vivo, read-out: Vdss. Format: ADME, organism-based, Macaca fascicularis.
A short description of data set [16]: Terminal half life in cynomolgus monkey at 1 mg/kg, po and 0.5 mg/kg, iv. Format: ADME, organism-based, Macaca fascicularis. To be noted: in vivo.
Data set [17] is described as follows: Oral bioavailability in rhesus monkey at 1 mg/kg. To be noted: in vivo. In kind it is ADME, organism-based, Macaca mulatta.
Data set [18] in a line: Oral bioavailability in cynomolgus monkey at 1 mg/kg. Format: ADME, organism-based, Macaca fascicularis. To be noted: in vivo.
Data set [19] in a line: Oral bioavailability in Beagle dog at 1 mg/kg. To be noted: in vivo. Format: ADME, organism-based, Canis lupus familiaris.
Data set [20] in a line: Clearance in cynomolgus monkey at 1 mg/kg, po and 0.5 mg/kg, iv. In kind it is ADME, organism-based, Macaca fascicularis. To be noted: in vivo.
Data set [21] in a line: Terminal half life in rhesus monkey at 1 mg/kg, po and 0.5 mg/kg, iv. In kind it is ADME, organism-based, Macaca fascicularis. The following applies: cynomolgus monkey, in vivo.

In turn, `CN([C@@H]1CCc2c(CC(=O)O)c3cccc(F)c3n2C1)S(=O)(=O)c1ccc(F)cc1` displayed a clearance in “in vivo [1]” of 0.4 mL/min/kg. The half-life in “in vivo [2]” was 16 h. Further, the bioavailability in “in vivo [3]” is 62%.
`CN([C@@H]1CCc2c(CC(=O)O[C@@H]3O[C@H](C(=O)O)[C@@H](O)[C@H](O)[C@H]3O)c3ccccc3n2C1)S(=O)(=O)c1ccc(F)cc1`: the Stability result (in data set [4]; in data set [5]; in the data set on Hepatocyte [6]; in data set [7]; with Hepatocyte [8]) was “Stable” each time.
For the compound `CN([C@@H]1CCc2c(CC(=O)O)c3ccccc3n2C1)S(=O)(=O)c1ccc(F)cc1` [MK-7246], the clearance worked out at 2.2 mL/min/kg in “in vivo [1]”, 15 mL/min/kg in data set [10], 6.9 mL/min/kg in [12] and 4.8 mL/min/kg in data set [20]. Moreover, the Vd was found to be 2.3 L/kg in [9], 0.98 L/kg in [13], 2.6 L/kg in data set [14] and 0.5 L/kg in data set [15]. Moreover, the half-life in “in vivo [2]” was 5.6 h; in [11], 8.4 h; in data set [16], 11 h; in data set [21], 8.1 h. The Stability result (in data set [4]; in data set [5]; with Hepatocyte [6]; in data set [7]; in the data set with Hepatocyte [8]) was “Stable” throughout. The bioavailability was found to be 57% in data set [17], 10% in data set [18], 5.6% in data set [19] and 107% in “in vivo [3]”.
